These results are taken from ChEMBL document CHEMBL3507680, “University of Dundee, Gates Library screen for HepG2 cell viability”.

Molecules are shown by their SMILES.

The series in a line: Human HepG2 cell viability assay in 384 well format. Conditions: HepG2 cells, read-out: Inhibition. Details: dose 125 nL, time 70.5 hour; cytotoxicity at 70.5 h: concentration not given beside the values. Type of series: toxicity, cell-based.

With `Cc1nc(C(C)(C)NC(=O)Nc2ccncc2)no1`, the cytotoxicity at 70.5 h was -0.296%.
As to `CC(C#N)CSc1ccccc1NCC(=O)NC1CCCCC1` (centres undefined), the cytotoxicity at 70.5 h is -1.2%.
The same measure for `COCCN(Cc1ccc(F)cc1Cl)C(=O)c1cc(C)n[nH]1`: -0.839%.
The same measure for `Cc1cc(NC(C)C(=O)N2CCN(c3ncccn3)CC2)ccc1F` (centres undefined): 9.5%; for `Cc1ccc(OCC(=O)Nc2ncccc2OC(F)F)cc1`: -1.62%.
As to `CC(C)NC(=O)CCNC(=O)c1cc(Br)cn1C(C)C`, the cytotoxicity at 70.5 h was 1.21%.
Regarding `COc1ccccc1-c1noc(CNc2ccc(F)cc2OCCO)n1`, the cytotoxicity at 70.5 h was determined as 9.78%.
For `N#Cc1cccc(OCC(=O)N(Cc2ccsc2)C2CC2)c1`, the cytotoxicity at 70.5 h is -12%.
Consider `CCOc1ccc(OCC)c(NCc2cc(C)on2)c1`, for which the cytotoxicity at 70.5 h worked out at 8.35%.
As for `Cc1nnc2n1CC(CNc1ncnc3ccccc13)CC2` (centres undefined), the figure is -11.6%; as for `CCc1[nH]n(C)c(=N)c1-c1ccc2c(c1)OCO2`, -6.78%; as for `CCNC(=O)N1CCC(NC(=O)NCCCc2cccc(F)c2)C1` (centres undefined), -4.92%.
The same measure for `Cc1ccc2cc(C(=O)N3CCS(=O)(=O)CC3)[nH]c2c1`: -12.3%; for `OCc1cc2ccccc2nc1NCC1CC1`: -4.89%.
For `CCOc1ccc(C#N)cc1NCc1cc(C)on1`, the cytotoxicity at 70.5 h was found to be 27.9%.
Turning to `CCNC(=O)N1CCC(NC(=O)NCCc2cccc(C)c2)C1` (centres undefined), the cytotoxicity at 70.5 h was found to be 4.49%.
The same measure for `CCc1nc(Cn2c(=O)n(CC)c3ccccc32)no1`: -7.55%; for `OCc1cc2ccccc2nc1NC1CC=CC1`: -5.4%; for `Cc1nc(CN(CCS(C)(=O)=O)C(C)C)cs1`: -8.28%.
As for `CCOCCN1CCN(Cc2nnc(-c3occc3C)o2)CC1CC` (centres undefined), the cytotoxicity at 70.5 h is -5.31%.
The same measure for `O=C(CN1CCOC(Cn2cccn2)C1)NC(C1CC1)C1CC1` (centres undefined): -6.99%; for `FC(F)(F)c1cccc(N2CCC(NCc3cccnc3)CC2)c1`: 26.9%; for `CCC(SC)C(=O)N1CCC(n2cccn2)CC1` (centres undefined): -6.08%.
In the case of `CSC(C)CC(=O)N1CCC(n2ccnn2)CC1` (centres undefined), the cytotoxicity at 70.5 h was -8.7%.
As for `COCc1ccccc1CNC(=O)CN1CCC2(CCOC2)C1` (centres undefined), the figure is 25%; as for `c1cnn(-c2ccc(CCNC3CCN(C4CC4)C3)cc2)c1` (centres undefined), 0.821%; as for `CC(=O)N1CCCN(Cc2cc(F)cc(Br)c2)CC1`, 21%.
Turning to `N#Cc1ccc(OCCn2cccn2)cc1`, the cytotoxicity at 70.5 h was -16.4%.
`CC(C)(C)CC(=O)NCC(=O)Nc1ccn(Cc2cccnc2)n1`: the cytotoxicity at 70.5 h worked out at 3.55%.
The same measure for `CN1CC(C(=O)NC2(c3ccc(Cl)cc3)CCOCC2)CC1=O` (centres undefined): 2.23%.
The same measure for `CCCOc1ccc(CNCCn2cccn2)cc1`: -12.1%.
The same measure for `NS(=O)(=O)CC1CCCN1CCOc1ccccc1F` (centres undefined): -12.4%; for `Cc1noc(C)c1CSC1CCCN(c2cnn(C)c2)C1=O` (centres undefined): 5.52%; for `NC(=O)N1CCCN(Cc2cc(F)cc(Br)c2)CC1`: -8.26%.
With `COc1ccc(C(C)Nc2cnn(C)c(=O)c2Cl)cc1OC` (centres undefined), the cytotoxicity at 70.5 h was -3.5%.
As for `CNC(=O)CNC(=O)Nc1cc(-c2ccccc2)ns1`, the figure is 29.7%.
The same measure for `CCc1n[nH]c(=O)c(C(=O)N2CCSC(C)(C)C2)c1CC`: -10.1%; for `CCc1n[nH]c(=O)c(C(=O)N2CCOC3(CCCC3)C2)c1CC`: -2.62%; for `CCC(NC(=O)NCc1cccc(N(C)C)n1)c1nccs1` (centres undefined): 32.1%.
As to `O=C(NCC1CCN(c2ccncc2)CC1)C(O)c1ccccc1` (centres undefined), the cytotoxicity at 70.5 h was found to be 7.47%.
The same measure for `COC(C)(C)CNC(=O)c1cn(-c2cccc(Cl)c2F)nn1`: 4.1%; for `FC(F)CN1CCC(NCCc2ccc(-n3cccn3)cc2)CC1`: -5.54%; for `CCC(=O)N1CCCN(Cc2cc(F)cc(Br)c2)CC1`: 16.2%.
As for `CN(CC(=O)NCC(F)(F)F)Cc1nc2c(s1)CCCC2`, the figure is -9.23%.
As for `CN(CC(=O)NCC1CCCO1)Cc1nc2c(s1)CCCC2` (centres undefined), the figure is 25.9%.
Regarding `CN(Cc1ccc2c(c1)OCCO2)Cc1nnnn1-c1ccccc1`, the cytotoxicity at 70.5 h was -17.2%.
As for `COc1ccc(C2(NC(=O)C3CC(=O)N(C)C3)CCCC2)cc1` (centres undefined), the figure is 20.4%; as for `CC(C)n1nc2c(cc1=O)CN(CCOc1cccc(C#N)c1)CC2`, -8.86%.
As for `CC(C)n1nc2c(cc1=O)CN(CCOc1ccccc1C#N)CC2`, the figure is 6.74%.
The same measure for `COCCCNC(=O)CN1CCOC(c2ccccc2)C1` (centres undefined): 15.8%.
Take `COCCN1CCN(CC(=O)N(C)Cc2ccccc2)CC1C` (centres undefined): the cytotoxicity at 70.5 h worked out at 53.1%.
`CCN(Cc1cccc(NC(=O)COC)c1)C(C)=O`: the cytotoxicity at 70.5 h was found to be 27.5%.
As for `O=C(NCC1CCOC1)c1csc(Cc2ccccc2)n1` (centres undefined), the cytotoxicity at 70.5 h was found to be 19.4%.
The same measure for `Cc1cccc(C)c1OCCNC(=O)CNC(=O)C1CCCC1`: 23.5%.
As for `COc1ccccc1-c1cc(NC(=O)CCC2CCCO2)[nH]n1` (centres undefined), the figure is 36.9%.
As for `COc1ccccc1-c1cc(NC(=O)CCS(=O)(=O)C2CCCC2)[nH]n1`, the cytotoxicity at 70.5 h turned out to be 25.9%.
The same measure for `COc1ccccc1-c1cc(NC(=O)COCC2CC2)[nH]n1`: -4.9%.
The same measure for `O=C(Cc1csc(N2CCNC2=O)n1)NCC1(c2ccccc2)CC1`: 24.5%.
The same measure for `O=C(Cc1csc(N2CCNC2=O)n1)NC(c1ccccc1)C1CC1` (centres undefined): -3.72%; for `O=C(Cc1csc(N2CCNC2=O)n1)NC1(c2ccccc2)CCC1`: -8.91%.
On to `CN(CCCc1cc(-c2cccc(F)c2)n[nH]1)C(=O)Cn1cncn1`, for which the cytotoxicity at 70.5 h turned out to be 22.1%.
The same measure for `C[C@@H]1CN(Cc2ccccc2)CCN1C(=O)NCc1nccs1`: 0.13%; for `Cc1nccc(CNC(=O)N2CCN(Cc3ccccc3)C[C@H]2C)n1`: -8.68%; for `CC/C=C(/C)C(=O)N1CCN(C2=NCC(C)S2)CC1` (centres undefined): 32.7%.
As for `CN1CCC(NC(=O)Nc2ccc(F)c(Br)c2)C1=O` (centres undefined), the figure is 21%.
In the case of `CCn1nc2c(cc1=O)CN(Cc1ccc(-n3cccn3)cc1)CC2`, the cytotoxicity at 70.5 h was 2.14%.
As for `CC(C)n1nc2c(cc1=O)CN(Cc1ccc(-n3cccn3)cc1)CC2`, the figure is 24.1%.
As for `Cc1ccc(-n2ccnc2)c(C(=O)NCCCN(C)C)c1`, the figure is 2%.
For the molecule `CC(CCS(C)(=O)=O)NC(=O)NCc1ccc2c(c1)CCC2` (centres undefined), the cytotoxicity at 70.5 h is -6.48%.
For `Cc1cccc(C)c1OCCNC(=O)C[S+]([O-])C1CCCC1` (centres undefined), the cytotoxicity at 70.5 h was -5.72%.
The same measure for `O=C(c1cnns1)N1CCN(c2ccc(F)cc2Cl)CC1`: 4.28%.
As for `O=C(C[S+]([O-])C1CCCC1)NCCOc1cccc(Cl)c1` (centres undefined), the figure is -6.11%; as for `Cc1cc(CN2CCN(S(=O)(=O)c3c(C)c(Cl)cc(C)c3Cl)CC2)on1`, -9.59%.
As for `Cc1cc(C(=O)NCCN2CCCC(C)C2)nn1C(C)(C)C` (centres undefined), the figure is -22.7%; as for `CC(C)C(NC(=O)NCc1cccnc1N(C)C)c1cccs1` (centres undefined), -20.8%.
Consider `CCNc1cc2c(nn1)CCN(C(=O)c1ccc(-n3cccn3)nc1)C2`, for which the cytotoxicity at 70.5 h is -15.9%.
For the molecule `O=C(Cn1cc(-c2ccccc2)cn1)N1CCNC1=O`, the cytotoxicity at 70.5 h is -21.6%.
Regarding `O=C(CCOc1ccccc1F)N1CCC(O)CC1`, the cytotoxicity at 70.5 h is -9.54%.
The same measure for `CC(CNC(=O)c1c[nH]nn1)Oc1ccc(Cl)cc1` (centres undefined): -22.2%; for `NC(=O)c1cc(C2CCCN(Cc3ccc4c(c3)OCCO4)C2)n[nH]1` (centres undefined): -22.9%; for `Cc1nnc(-c2cccc(C#N)c2)n1C1CCN(C2CC2)C1=O` (centres undefined): 46%.
The same measure for `Cn1ncnc1NCc1ccc(Cl)cc1`: -9.65%; for `Cn1ncnc1NCc1ccccc1Cl`: -15.3%.
As for `CCCC(=O)NC1CCCN(Cc2cccs2)C1` (centres undefined), the figure is -18.1%; as for `CCN(CC1CCCO1)C(=O)NCCNC(=O)c1ccccc1F` (centres undefined), 43.4%; as for `CCCN(CCc1ccccn1)C(=O)CCc1cnn(C)c1`, -10.1%.
Take `O=C(C1CCCN(CCc2ccc3c(c2)CCO3)C1)N1CCCC1` (centres undefined): the cytotoxicity at 70.5 h was 44.9%.
As for `CC(C)CC(c1nc(-c2cnn(C)c2)no1)N1CCCCC1=O` (centres undefined), the figure is -3.04%; as for `CCC(=O)NC1CCCN(Cc2ccc(NC(C)=O)cc2)C1` (centres undefined), -4.65%; as for `COc1cccc(CC2CCCN2CCCO)c1` (centres undefined), -2.11%.
The same measure for `CN(CC1CCN(CCO)CC1)CC(O)c1ccc(F)c(F)c1` (centres undefined): 7.09%; for `CCCNC(=O)c1cccc2ncccc12`: -4.07%.
As for `Cc1ccc(C(C)N(C)CCS(=O)(=O)CCC(N)=O)cc1` (centres undefined), the figure is -6.4%.
`COc1ccc(C(C)N2CCC(C(=O)N(C)C)CC2)cc1Cl` (centres undefined): the cytotoxicity at 70.5 h was -7.99%.
The same measure for `O=C(CNc1cccc(S(=O)(=O)C(F)F)c1)Nc1ccccc1`: -5.1%.
For the molecule `COc1ccc(C(C)N2CCC(CNC(C)=O)CC2)cc1Cl` (centres undefined), the cytotoxicity at 70.5 h is -1.84%.
As for `CC(C)c1ccc(-n2cc(O)c(C(=O)O)n2)cc1`, the figure is -5.79%; as for `Cc1n[nH]cc1CNC1CCN(c2ccccc2)CC1`, 24.8%.
As for `Cn1cc(CNC2CCC(O)CC2)c(-c2cc3ccccc3o2)n1` (centres undefined), the figure is -6.96%.
As for `Cc1n[nH]cc1CNC1CCN(c2ccc(F)cc2)CC1`, the figure is -8.94%; as for `COc1cccc(CNC(C)c2ccc(-n3ccnc3)cc2)c1OC` (centres undefined), -8.35%; as for `CC(C)(CNCc1ccc(OCc2cscn2)cc1)C(N)=O`, 2.2%.
With `CC(=O)N1CCCCCC1C1CCN(Cc2nnc(C(C)(C)C)o2)CC1` (centres undefined), the cytotoxicity at 70.5 h was -5.64%.
As to `Cn1[nH]c(Br)c2/c(=N\CCN)ncnc1-2`, the cytotoxicity at 70.5 h is -7.01%.
